In paper PMC8765781, “A platform of assays for the discovery of anti-Zika small-molecules with activity in a 3D-bioprinted outer-blood-retina model” (PLoS ONE, 2022):
Read-outs that look alike come from different tables or passages of the source.

Columns and labels:
[1] = test system: ZIKV-RLuc (Cambodian strain FSS13025); assay: microbe, parasite or virus in culture; format: cell-based, Zika virus
[2] = Zika virus, Vero, read-out: Log AC50 (M) (converted)

SMILES	AC50 (Vero cells)	Log AC50 (M) (Vero cells)	CC-v2 (curve class classification v2 of the dose response curve) [1]	Efficacy (difference between neutral response and maximum compound response) [1]	Max Resp (difference between neutral response and compound response for highest compound concentration) [1]	AC50 ([1]; Zika virus, Vero)	AC50 [1, 2]	AC50 [1]	Log AC50 (M) [1]
CS[C@H]1SC[C@@H]2C(=O)N(C)[C@H](C(C)C)C(=O)OC[C@H](NC(=O)c3cnc4ccccc4n3)C(=O)N[C@H](C)C(=O)N(C)[C@H]1C(=O)N(C)[C@H](C(C)C)C(=O)OC[C@H](NC(=O)c1cnc3ccccc3n1)C(=O)N[C@H](C)C(=O)N2C [NCGC00163548-01]	1.82 µM	-5.7408 M	-1.1	-94.296	-94.115	1.82e-06 M	1.82e-06 M	–	–
CC(=O)O[C@H]1C(=O)[C@@]2(C)[C@H]([C@H](OC(=O)c3ccccc3)[C@]3(O)C[C@H](OC(=O)[C@H](O)[C@@H](NC(=O)c4ccccc4)c4ccccc4)C(C)=C1C3(C)C)[C@]1(OC(C)=O)CO[C@@H]1C[C@@H]2O [NCGC00164367-10]	0.139 µM	-6.8582 M	-1.2	-44.84	-48.24	1.39e-07 M	1.39e-07 M	–	–
CCN(CC)CCOc1ccc(C(=C(Cl)c2ccccc2)c2ccccc2)cc1 [NCGC00164385-05]	23.3 µM	-4.6327 M	-2.1	-102.171	-98.776	2.33e-05 M	2.33e-05 M	–	–
C[C@@H]1C[C@H]2C3CCC4=CC(=O)C=C[C@@]4(C)[C@@]3(Cl)[C@@H](O)CC2(C)[C@@]1(OC(=O)c1ccco1)C(=O)CCl (some centres unmarked) [NCGC00164596-01]	10.4 µM	-4.9827 M	-1.1	-109.905	-100.212	1.04e-05 M	1.04e-05 M	–	–
CCN(CC)CCNC(=O)c1c(C)[nH]c(/C=C2\C(=O)Nc3ccc(F)cc32)c1C [NCGC00164631-04]	11.7 µM	–	-2.1	-103.003	-99.557	1.17e-05 M	1.17e-05 M	–	–
O=c1[nH]c2ccccc2n1C1CCN(Cc2ccc(-c3nc4cc5nc[nH]c5cc4nc3-c3ccccc3)cc2)CC1 [NCGC00165727-01]	16.5 µM	-4.7827 M	-2.1	-80.197	-82.143	1.65e-05 M	1.65e-05 M	–	–
CN(C)C1CCN(CCCOc2ccc(-c3ccc(C#N)cc3)cc2)C1 (centres unmarked) [NCGC00165730-02]	36.9 µM	-4.4327 M	-3	-68.814	-57.023	3.69e-05 M	3.69e-05 M	–	–
COc1cc(C(C)C)c2c(c1)[S+](=O)([O-])N(COc1cc(=O)n3cccc(OCCN4CCCCC4)c3n1)C2=O [NCGC00167751-03]	23.3 µM	-4.6327 M	-2.1	-105.384	-99.738	2.33e-05 M	2.33e-05 M	–	–
O=c1cc(-c2ccc(O)c(O)c2)oc2c(C3O[C@H](CO)[C@H](O)[C@H](O)[C@H]3O)c(O)cc(O)c12 (some centres unmarked) [NCGC00168934-02]	18.5 µM	-4.7327 M	-2.1	-106.691	-100.564	1.85e-05 M	1.85e-05 M	–	–
C/C=C(\C)C(=O)O[C@H]1CC2C(=C1C)[C@H]1OC(=O)[C@](C)(O)[C@]1(O)[C@H](OC(=O)CCC)C[C@@]2(C)OC(C)=O (some centres unmarked) [NCGC00169033-03]	–	-5.6408 M	-1.1	-98.201	-99.812	2.29e-06 M	2.29e-06 M	–	–
CCCCC/C=C/C(=O)CCc1ccc(O)c(OC)c1 [NCGC00169591-02]	18.5 µM	-4.7327 M	-2.1	-87.809	-86.687	1.85e-05 M	1.85e-05 M	–	–
CCCCN(CCCC)CCC(O)c1cc2c(Cl)cc(Cl)cc2c2cc(C(F)(F)F)ccc12 (centres unmarked) [NCGC00179250-04]	29.3 µM	-4.5327 M	-2.2	-95.793	-79.925	2.93e-05 M	2.93e-05 M	–	–
C[C@@H]1C[C@H]2[C@@H]3CCC4=CC(=O)C=C[C@]4(C)[C@@]3(Cl)[C@@H](O)C[C@]2(C)[C@@]1(OC(=O)c1ccco1)C(=O)CCl [NCGC00179578-03]	23.3 µM	-4.6327 M	-2.1	-100.838	-97.726	2.33e-05 M	2.33e-05 M	–	–
O=C(/C=C/c1ccccc1)CC(O)CCc1ccccc1 (centres unmarked) [NCGC00180705-02]	23.3 µM	-4.6327 M	-2.2	-46.506	-73.055	2.33e-05 M	2.33e-05 M	–	–
CC1(C)CCC(C)(C)c2cc(NC(=O)c3ccc(C(=O)O)cc3)ccc21 [NCGC00181111-01]	36.9 µM	-4.4327 M	-3	-105.549	-80.478	3.69e-05 M	3.69e-05 M	–	–
CC1(C)CCC(C)(C)c2cc(NC(=O)c3ccc(C(=O)O)cc3)ccc21 [NCGC00181111-02]	36.9 µM	-4.4327 M	-2.1	-104.922	-87.275	–	–	3.69e-05 M	-4.4327
Cc1nc(Nc2ncc(C(=O)Nc3c(C)cccc3Cl)s2)cc(N2CCN(CCO)CC2)n1 [NCGC00181129-05]	–	-7.0699 M	-1.1	-120.53	-95.603	8.51e-08 M	8.51e-08 M	–	–
